Measured values published in patent publication US20220411448A1, “CHROMENE-4-ONE DERIVATIVES AS BRAIN-DERIVED NEUROTROPHIC FACTOR (BDNF) MIMETICS” (FLORATEK PHARMA AG, priority 2019, published 2022).

Experiments:
[1] = test system: primary cultures of cerebral cortical astrocytes; experiment: Lactate release assay in astrocyte cultures; format: cell-based, mouse; details: various concentrations, 30 minutes after application
Experimental: Primary cultures of cerebral cortical astrocytes were prepared from Swiss albino newborn mice (1-2 days old) as described [Pellerin L, Magistretti P J. Glutamate uptake into astrocytes stimulates aerobic glycolysis: a mechanism coupling neuronal activity to glucose utilization. Proc Natl Acad Sci USA. 1994 Oct. 25; 91(22):10625-9]. This procedure yields cultures that are >95% immunoreactive for glial fibrillary acidic protein.
Astrocytes are emerging as having significant roles in several homeostatic processes in the brain [Zuchero J B, Barres B A. Glia in mammalian development and disease. Development 2015 142: 3805-3809]. To evaluate the potential effects of Compound A (10 μM) on astrocyte metabolism, the uptake of glucose and lactate release were measured 30 minutes after application of compounds to the culture (FIGS. 2 and 3).
Lactate release into the medium was measured enzymatically by a modification of the enzymatic spectrophotometric method of Rosenberg and Rush [Rosenberg J C, Rush B F. An enzymatic-spectrophotometric determination of pyruvic and lactic acid in blood. Methodologic aspects. Clin Chem. 1966; 12(5):299-307.]. Incubations were carried out exactly as described for [3H]2DG uptake experiments except for the fact that no tracer and no phenol red (which otherwise interferes with the spectrophotometric determination of lactate) were present in the incubation medium. […]

Astrocytes = experiment: Cellular ATP/ADP ratio (luciferase, CellTiter-Glo); format: cell-based, mouse
Experimental: ATP content was measured enzymatically as previously described [Lambert H P et al, Control of Mitochondrial pH by Uncoupling Protein 4 in Astrocytes Promotes Neuronal Survival, 2014 The Journal of Biological Chemistry 289, 31014-31028] using a luciferase assay, the CellTiter-Glo Luminescent cell viability assay (Promega). Astrocytes grown on multiplate of 48 wells were rinsed and incubated 1 h at 37° C. in an atmosphere containing 5% CO2 and 95% air in DMEM (D5030; Sigma-Aldrich) containing 44 mm NaHCO3 and 2 mm glucose. At the end of the incubation, medium was removed, and 200 μl of Tricine buffer solution (40 mm Tricine, 3 mm EDTA, 85 mm NaCl, 3.6 mm KCl, 100 mm NaF, and 0.1% saponin (84510; Sigma-Aldrich), pH 7.4) was put in each well. Cells were lysed by saponin effect and by pipetting. Each sample was divided for ATP measure and for ATP+ADP measure. 90-μl aliquots were distributed in a black-walled 96-well type microplates (PerkinElmer Life Sciences). […] Finally, 100 μl of CellTiter-Glo reagent (G7571; Promega) was added, and luminescence was immediately detected with a luminometer (Safire 2; Tecan). Luminescence was measured in a kinetic way determined by 20 readings at intervals of 1 min. Luminescence read at the plateau were taken to calculate the ATP/ADP ratio. […]

[2] = test system: cortical neurons with MPP+ lesion; experiment: MPP+ induced apoptosis in cortical neurons (YO-PRO-1); format: cell-based, mouse; details: 0.5 and 1 μM, 24 h MPP+ lesion
Experimental: Mouse cortical neurons were prepared as described. At DIV8 cells were treated with the test and control MK801 compounds for 1 h, before the addition of MPP+(Sigma, D048) at a final concentration of 100-200 μM. The experiment was carried out with n=6 technical replicates per condition, vehicle and MPP+ alone controls were included. After 8 h determination of ROS was conducted and after 24 h of MPP+ lesion on DIV9 cells were subject to the apoptosis measurement. Apoptosis was determined using YO-PRO™-1 Iodide (Invitrogen; Y3603). Part of supernatant of the cultivated cells was removed and 10 μL of a 50 μM YO-PRO 1 solution in PBS is added to the remaining 90 μL to result in a final concentration of 5 μM YO-PRO 1 in well. Incubation for 15 min in the incubator at 37° C. was performed (light protected) followed by discarding the supernatant. 140 μL PBS was added to each well and the fluorescence was measured using a plate-reader (Cytation 5, BioTek) at excitation wavelength 485 nm to Emission wavelength 535 nm.

[3] = test system: human hepatocytes from pooled donor lot; experiment: Hepatic toxicity: cytotoxicity by LDH leakage; format: cell-based; details: 1 to 100 μM, 24 h exposure
Experimental: Cryopreserved human hepatocytes from pooled donor lot (Bioreclamation IVT) were seeded on collagen I coated 96-well plates (Corning Biocoat) at 0.55×10^5 cells per well in 120 μl InVitroGRO™ CP medium (BioIVT), including additives Torpedo Antibiotic mix (BioIVT). After cell attachment (4-6 hours post seeding) cell culture medium was replaced with fresh medium and incubated for 72 hours at 37° C. under 5% CO2. Thereafter, hepatocytes were exposed to test or control compounds in 100 μl of InVitroGRO™ HI medium, including additives Torpedo Antibiotic mix at concentrations presented below. Cytotoxicity and cell viability were evaluated based on LDH release in medium and ATP content in the cells after 24 hours exposure phase.
Cytotoxicity potency of test compounds SND118, SND121, SND122 and SND123 was assayed in human hepatocytes from pooled donor lot at three concentrations; 1, 10 and 100 μM. Cytotoxicity was assayed from medium samples after 24 h exposure period with test compounds by measuring membrane integrity (LDH leakage), coupled to fluorescent signal. In parallel, cell viability was assayed by the means of ATP content, indicating the metabolically competent cell activity. LDH and ATP assay kits were sourced from Promega. ATP content was measured based on luciferase catalysed reaction generating stable bioluminescent signal. […]

production of ATP (Astrocytes; 100 nM, 30 min): increased production of ATP | ATP/ADP ratio (Astrocytes; various doses): trended higher at most doses
SMILES: O=c1cc(-c2ccc(CCCC[P+](c3ccccc3)(c3ccccc3)c3ccccc3)cc2)oc2c(O)c(O)ccc12 [SND118, 4-[4-(7,8-dihydroxy-4-oxo-chromen-2-yl)phenyl]butyltriphenylphosphonium bromide]
release of L-lactate [1]: increased the release of L-lactate | apoptosis induced by MPP+ (YO-PRO-1) [2]: significantly inhibited apoptosis | Cytotoxicity (LDH leakage) [3]: 7-10%
